According to paper PMC12114375, “Discovery of Hydrazineyl Amide Derivative of Pseudolaric Acid B for Reprogramming Tumor-Associated Macrophages Against Tumor Growth” (Molecules, 2025):

Key:
[1] = tested on: NOS2 mRNA expression in RAW 264.7 cells; experiment: qRT-PCR of NOS2 mRNA in IL-4/IL-13-stimulated RAW 264.7 cells; type: cell-based, mouse; settings: Mus musculus, RAW264.7, IL-4/IL-13 (20 ng/mL) plus compound 10 μM, 12 h, stimulated control = 100%, mean ± SD, read-out: NOS2 mRNA Relative Expression (%)
Excerpt: We first investigated the impacts of a series of commercially available natural pseudolaric acids or their O-pyranosides (Figure 1) on the pro-tumoral phenotype of TAMs, which play a critical role in anti-tumor immune response modulation. […] In contrast, M1-biased macrophages combat tumor growth and bacterial infections by expressing inducible nitric oxide synthase 2 (NOS2), which catalyzes the production of nitric oxide (NO). Recognizing the pivotal roles of ARG1 and NOS2, we utilized these molecules as key biomarkers and effectors for assessing macrophage immune function. In our experiments, the mouse monocyte–macrophage leukemia cell line RAW 264.7 was induced with IL-4/IL-13 to acquire an M2-like pro-tumoral phenotype. Concurrently, the cells were treated with the pseudolaric acid-related natural products 1–7 at a concentration of 10 μM for 12 h. Additionally, PLX3397 was used as a positive control at a concentration of 0.5 μM. […] As shown in Table 1 and Figure S1A, pseudolaric acid B (1), its deacetoxyl analogue 2 (pseudolaric acid C), and β-D-glucoside 7 substantially attenuated the upregulation of ARG1 mRNA expression induced by IL-4/IL-13, with statistically significant effects. In contrast, bis-carboxylic acids analogs 4 (pseudolaric acid C2) and 6 (demethoxydeacetoxypseudolaric acid B) have no significant impact on ARG1 mRNA expression.
With these carboxylic acid-modified derivatives in hand, we investigated their impact at 10 μM on ARG1 and NOS2 mRNA expression in RAW 264.7 cells pre-stimulated with IL-4/IL-13 to evaluate the effects on the pro-tumor phenotype of macrophages. […] Further removal of one hydroxyl from the glycerol moiety 15 further enhanced the inhibitory effect on ARG1 expression but had no significant impact on NOS2 expression.
Total RNA was isolated from cells using the EZ-press RNA Purification Kit (EZBioscience, Suzhou, China) and subjected to reverse transcription with the 5×HiScript II qRT SuperMix II (Vazyme, Nanjing, China). PCR was performed with the 2×ChamQ Universal SYBR qPCR Master Mix (Vazyme, Nanjing, China). All primers for qRT-PCR are described in Table S1. The 2^−∆∆Ct method was utilized to calculate the fold change in gene expression, with the expression levels in the stimulated group set as the baseline for normalization.

[2] = tested on: tumor-infiltrating immune cells in Hepa1-6 tumor; experiment: Flow cytometric analysis of tumor-infiltrating immune cells in the Hepa1-6 model; type: in vivo, C57 BL/6 mice; settings: Hepa1-6 tumor tissue, 25 mg/kg, 2 h after the last treatment
Excerpt: Encouraged by its intriguing cellular activities, we investigated the anti-tumor effect of compound 12 in vivo. The Hepa1-6 liver cancer model, an immunocompetent macrophage-rich subcutaneous murine tumor model, was thus established. […] To further investigate whether the in vivo anti-tumor effect of compound 12 is associated with its inhibition of pro-tumoral macrophages and consequent activation of anti-tumor CD8^+ T cells, we analyzed the infiltration of macrophages and CD8^+ T cells in the tumor tissue of the Hepa1-6 model.
Animal procedures were approved by the Institutional Animal Care and Use Committee of the Shanghai Institute of Materia Medica (approval no. 2024-06-DJ-95). Mice (4–6 weeks old) were housed with five or six mice per cage in a specific pathogen-free room with a 12 h light/dark schedule at 25 °C ± 1 °C and were fed an autoclaved chow diet and water ad libitum. Hepa1-6 cells (2 × 10^6 cells) were subcutaneously implanted in the right flank of C57 BL/6 mice. When the tumors reached a volume of around 50 mm^3, the mice were randomized into the treatment groups. The vehicle groups were given the vehicle alone, and the treatment groups received compound 1 in the indicated doses via intratumoral injections once daily on the indicated days. The tumor volumes and body weights were measured twice per week. Tumor volume (TV) was calculated as follows: TV = (length × width^2)/2. Significant differences between the treated versus the vehicle groups were determined using the Student’s t-test. […] Consequently, the sample size for this treatment group was reduced to 7. Hepa1-6 tumor tissues were minced and digested using a Mouse Tumor Dissociation Kit (Miltenyi, Bergisch Gladbach, Germany). The cells were passed through a 70 μm cell strainer, stained with a fluorescent antibody or the matching isotype controls for 30 min at room temperature, and then tested using a BD CytoFLEX LX (Beckman). […] Viability was determined by staining with either the LIVE/DEAD® Fixable Violet Dead Cell Stain Kit (Invitrogen, Waltham, […], USA) or the Zombie Aqua™ Fixable Viability Kit (Biolegend, San Diego, CA, USA). Data were analyzed using FlowJo10.4 software.
Figure 4 Compound 12 inhibited Hepa1-6 tumor growth in vivo and remodeled the tumor microenvironment. […] The TVs (A) and body weights (B) are presented as the mean ± SEM. * p < 0.05 vs. the vehicle group, determined by the Student’s t-test. […] The infiltration of CD45^+ cells (C), TAMs (D), CD206^+ TAMs (E), ARG1^+ TAMs (F), CD8^+ T cells (G), GRZB^+ CD8^+ T cells (H), IFN γ^+ CD8^+ T cells (I), and TNF α^+ CD8^+ T cells (J) was tested (n = 8 mice in the vehicle group and n = 7 mice in the 12-treated group). * p < 0.05, ** p < 0.01, *** p < 0.001 vs. the vehicle group, determined by the Student’s t-test. […]

## COC(=O)C1=CC[C@@]23CC[C@@H]([C@@](C)(/C=C/C=C(\C)C(=O)NNCCO)OC2=O)[C@@]3(OC(C)=O)CC1 [compound 12, Methyl(3R,4S,4aS,9aR)-4a-acetoxy-3-((1E,3E)-5-(2-(2-hydroxyethyl)hydrazineyl)-4-methyl-5-oxopenta-1,3-dien-1-yl)-3-methyl-1-oxo-3,4,4a,5,6,9-hexahydro-1H-4,9a-ethanocyclohepta[c]pyran-7-carboxylate]
[1]
  activity at 10 µM: 182 ± 5.3%
[2]
  TAMs with the M1-like phenotype (CD86+ TAMs, MHC II+ TAMs): marginal upregulation
  infiltration of CD8+ T cells and activated (GRZB+, IFNγ+, TNFα+) CD8+ T cells in CD45+ cells: significantly upregulated
  infiltration of total immune cells (CD45+ cells): increasing trend
  tumor infiltration of total TAMs, CD206+ TAMs and ARG1+ TAMs in CD45+ cells: significantly reduced
